For test [1], the system named is sACE (human ACE). The note with it: cited from earlier work; for interdomain cooperativity: human ACE enzymes; for degree of cooperativity between domains: compared with many synthetic peptides. The source says:
Due to the C‐domain's poorer hydrolysis of Aβ we can infer that the C‐domain appears ...

The target in test [2] is T1, Ndom (soluble form of the N‐domain of sACE) (Homo sapiens, UniProt P12821).
T1 construct: made in house; host or cells: CHO cells
The experiment in a line: Aβ(4–10)Q hydrolysis by Ndom, fluorogenic assay. Type of test: biochemical. The following applies: fluorescence λex 320 nm, λem 420 nm, 50 mM Hepes pH 7.5, 100 mM NaCl, 10 μM ZnSO4, substrate 0 to 30 μM, 45 min, 37 °C, enzyme 0.60 pmol, n = 3. The source says:
(§1) Fluorogenic substrates designed around the established N‐terminal Asp7‐Ser8 cleavage site of the full‐length Aβ(1–42) were used to develop a higher throughput assay. There are two variations of the short fluorogenic peptides: Aβ(4–10)Q (Abz‐FRHDSG(Q)‐EDDnp) which has an N‐terminal Abz donor and a C‐terminal EDDnp quencher group attached to an additional Gln residue. The second peptide, Aβ(4–10)Y (Abz‐FRHDSG‐(NT)) has a different quencher molecule, NT, which substitutes for the naturally occurring Tyr residue.
(§2) Hydrolysis of the fluorogenic peptide Abz‐FRHDSG(Q)‐EDDnp (Aβ(4–10)Q, obtained from A. Carmona, Universidade Federal de São Paulo, Brazil) was performed in Hepes buffer (50 mM Hepes pH 7.5, 100 mM NaCl, 10 μM ZnSO4 buffer) with 150 μL enzyme (at final concentrations within 10% hydrolysis of total substrate; see Table 2) and equal volume of substrate ranging from 0 to 30 μM. The assay is a modified form of the continuous assay 7 where the assay is set up on ice in triplicate in a 96‐well plate. The baseline fluorescence was at time zero and then the substrate was incubated at 37 °C and fluorescence read at the 45 min time point on a Cary Eclipse spectrofluorimeter (Varian Inc.) at λex = 320 nm and λem = 420 nm. Again, kinetic constants were calculated using the Michaelis–Menten method with […] PRISM software (v4.01, GraphPad Prism®). The detected fluorescence was converted to picamoles product formed through the slope of a calibration curve of Abz‐Gly. A correction curve was also applied to correct the data for the inner filter effect 70.
(§3) Statistical analysis of the data was determined by Student's t test. Differences with P < 0.05 were considered statistically significant. Fractional error was calculated for the k cat/K m ratio with the following equation: ΔZ=ZΔa/a^2+Δb/b^2 where Z represents the mean k cat/K m and ΔZ represents the fractional error. The Δa represents the SEM of the mean k cat (a). Similarly, Δb represents the SEM of the mean K m (b).

Test [3] has as its target T2, N‐sACE (Homo sapiens, UniProt P12821, H988K/H992K).
T2 construct: Both constructs have the complete signal, transmembrane and stalk region corresponding to full‐length sACE; made in house; host or cells: CHO cells; purified from cell lysate
The experiment in a line: Aβ(4–10)Q hydrolysis by N‐sACE, fluorogenic assay. Type of test: biochemical. The following applies: fluorescence λex 320 nm, λem 420 nm, 50 mM Hepes pH 7.5, 100 mM NaCl, 10 μM ZnSO4, substrate 0 to 30 μM, 45 min, 37 °C, enzyme 9.00 pmol, n = 3.
Description: as §1, §2, §3

For test [4], the target named is T3, sACE (Homo sapiens, UniProt P12821).
T3 construct: made in house; host or cells: CHO cells; purified from cell lysate
T3 sequence (P12821 30-1306): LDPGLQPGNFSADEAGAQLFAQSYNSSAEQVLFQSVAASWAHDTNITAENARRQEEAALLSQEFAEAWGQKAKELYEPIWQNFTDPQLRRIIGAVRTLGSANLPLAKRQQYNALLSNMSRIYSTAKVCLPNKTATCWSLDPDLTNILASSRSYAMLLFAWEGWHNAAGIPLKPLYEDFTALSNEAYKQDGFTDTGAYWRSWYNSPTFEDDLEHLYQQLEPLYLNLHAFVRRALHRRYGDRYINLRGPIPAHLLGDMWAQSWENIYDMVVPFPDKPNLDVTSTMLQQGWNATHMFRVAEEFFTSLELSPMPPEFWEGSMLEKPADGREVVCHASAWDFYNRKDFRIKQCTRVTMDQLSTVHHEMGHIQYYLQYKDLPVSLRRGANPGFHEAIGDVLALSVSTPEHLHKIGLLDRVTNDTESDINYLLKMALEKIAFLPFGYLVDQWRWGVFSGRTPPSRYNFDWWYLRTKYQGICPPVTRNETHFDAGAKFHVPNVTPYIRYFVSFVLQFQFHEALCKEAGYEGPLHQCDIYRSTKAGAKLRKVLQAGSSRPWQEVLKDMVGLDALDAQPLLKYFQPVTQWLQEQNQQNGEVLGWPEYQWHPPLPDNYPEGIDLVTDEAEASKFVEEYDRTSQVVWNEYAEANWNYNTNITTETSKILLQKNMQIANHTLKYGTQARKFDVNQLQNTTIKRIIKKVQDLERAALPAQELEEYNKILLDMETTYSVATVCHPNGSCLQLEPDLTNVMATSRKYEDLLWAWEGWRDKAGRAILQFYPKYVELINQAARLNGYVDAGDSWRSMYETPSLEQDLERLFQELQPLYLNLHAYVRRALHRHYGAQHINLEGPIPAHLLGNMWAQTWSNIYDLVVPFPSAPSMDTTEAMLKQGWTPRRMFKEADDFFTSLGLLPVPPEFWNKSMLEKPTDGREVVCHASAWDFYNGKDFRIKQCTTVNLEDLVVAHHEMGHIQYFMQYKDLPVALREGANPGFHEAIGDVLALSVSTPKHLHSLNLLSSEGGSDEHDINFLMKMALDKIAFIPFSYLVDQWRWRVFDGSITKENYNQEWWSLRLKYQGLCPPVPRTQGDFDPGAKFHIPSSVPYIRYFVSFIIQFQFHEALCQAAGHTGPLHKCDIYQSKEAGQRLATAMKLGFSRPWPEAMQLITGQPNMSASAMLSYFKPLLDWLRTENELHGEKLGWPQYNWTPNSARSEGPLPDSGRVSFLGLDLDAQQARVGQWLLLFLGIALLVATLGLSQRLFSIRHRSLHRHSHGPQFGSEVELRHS
The test can be described thus: Aβ(4–10)Q hydrolysis by sACE, fluorogenic assay. Type of test: biochemical. The note with it: fluorescence λex 320 nm, λem 420 nm, 50 mM Hepes pH 7.5, 100 mM NaCl, 10 μM ZnSO4, substrate 0 to 30 μM, 45 min, 37 °C, enzyme 1.50 pmol, n = 3.
Description: as §1, §2, §3

Test [5] has as its target T4, C‐sACE (Homo sapiens, UniProt P12821, H390K/H394K).
T4 construct: Both constructs have the complete signal, transmembrane and stalk region corresponding to full‐length sACE; made in house; host or cells: CHO cells; purified from cell lysate
The test can be described thus: Aβ(4–10)Q hydrolysis by C‐sACE, fluorogenic assay. The format is biochemical. The following applies: fluorescence λex 320 nm, λem 420 nm, 50 mM Hepes pH 7.5, 100 mM NaCl, 10 μM ZnSO4, substrate 0 to 30 μM, 45 min, 37 °C, enzyme 1.50 pmol, n = 3.
Description: as §1, §2, §3

The test system of test [6] is CC‐sACE. The experiment in a line: Aβ(4–10)Q hydrolysis by CC‐sACE, fluorogenic assay. The note with it: Hepes pH 7.5, 37 °C, 45 min, fluorescence. The format is biochemical, human.
CC‐sACE, sequence (P12821 643-1222 limits assumed): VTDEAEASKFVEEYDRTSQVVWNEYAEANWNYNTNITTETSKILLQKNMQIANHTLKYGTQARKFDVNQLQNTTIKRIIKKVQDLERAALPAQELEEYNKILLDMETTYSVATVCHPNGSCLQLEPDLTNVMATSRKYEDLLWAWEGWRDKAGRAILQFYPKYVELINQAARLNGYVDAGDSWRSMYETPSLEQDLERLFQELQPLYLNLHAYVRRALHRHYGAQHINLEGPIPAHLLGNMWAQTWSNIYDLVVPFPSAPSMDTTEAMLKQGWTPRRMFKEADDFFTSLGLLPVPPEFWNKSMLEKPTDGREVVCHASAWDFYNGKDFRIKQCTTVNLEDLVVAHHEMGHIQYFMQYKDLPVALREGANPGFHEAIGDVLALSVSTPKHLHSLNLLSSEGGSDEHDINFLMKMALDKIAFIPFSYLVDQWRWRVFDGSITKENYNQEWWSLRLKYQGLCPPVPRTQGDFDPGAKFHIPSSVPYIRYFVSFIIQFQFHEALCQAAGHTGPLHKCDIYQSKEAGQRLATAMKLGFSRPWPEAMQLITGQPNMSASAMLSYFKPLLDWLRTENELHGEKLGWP
Description: as §1
as §2, with “The assay is a modified form of the continuous assay 7 where the assay is set up on ice in triplicate in a 96‐well plate.” left out, “PRISM software (v4.01, GraphPad Prism®).” left out, “A correction curve was also applied to correct the data for the inner filter effect 70.” left out
Statistical analysis of the data was determined by Student's t test. […]

Test [7] has as its system ACE variants. The test can be described thus: Cleavage‐site analysis by MALDI‐TOF MS, kinetic assay conditions. The format is biochemical, human. The following applies: MALDI‐TOF MS of products within kinetic assay conditions; Aβ(1–16): all ACE variants except Cdom; Aβ(4–10) peptides: Cdom and CC‐sACE not analysed. On the procedure: The mass spectrometry was analysed at the Centre for Proteomic and Genomic Research (Cape Town, South Africa). Briefly, the collected peptides were spotted onto a 10 mg·mL^−1 α‐cyano‐4‐hydroxycinnamic acid matrix (Fluka, USA) in 80% ACN, 0.2% TFA for a final concentration of 5 mg·mL^−1 matrix in 40% ACN, 0.1% TFA, 10 mM NH4H2PO4. Mass spectrometry was performed with a 4800 MALDI‐TOF/TOF (Applied Biosytems) with all spectra recorded in positive reflector mode. Spectra were generated with 400 laser shots/spectrum at a laser intensity of 3800 (arbitrary units) with a grid voltage of 16 kV.

In test [8] the target is T3, sACE. The experiment in a line: Interdomain cooperativity in hydrolysis of Aβ substrates. Type of test: biochemical. The note with it: two domains of sACE, truncated and full‐length constructs compared. On the procedure: Mixtures were separated on a Poroshell 120 EC‐18 column with a 2.7 μm pore size. The reaction consists of 25 μL substrate incubated with 25 μL enzyme for 15 min at 37 °C and was stopped with the addition of 10 μL of 0.25% trifluoroacetic acid (TFA). The total reaction (60 μL) was cleared of contaminants on a spin column (GHP Nanosep® MF Centrifugal Device 0.45 μm pore size) and run on the HPLC. Kinetic parameters were determined through the fitting of initial rates to the Michaelis–Menten equation with […] PRISM software (v 4.01, GraphPad Prism®).
The reaction was incubated for 15 min at 37 °C and stopped with the addition of 10 μL 0.25% TFA to make up a total volume of 60 μL. The reactions were performed in triplicate and 50 μL injections were analysed via HPLC (Agilent Technologies) across a gradient of 0.1% TFA and 2% ACN in water to 0.1% TFA, 95% ACN. A calibration curve was set up to convert the product peak area to picomoles product formed, through the complete hydrolysis of the substrate with the N‐domain. […] Kinetic constants were calculated using the Michaelis–Menten method using […] […]
The assay is a modified form of the continuous assay 7 where the assay is set up on ice in triplicate in a 96‐well plate. The baseline fluorescence was at time zero and then the substrate was incubated at 37 °C and fluorescence read at the 45 min time point on a Cary Eclipse spectrofluorimeter (Varian Inc.) at λex = 320 nm and λem = 420 nm. Again, kinetic constants were calculated using the Michaelis–Menten method with […] […] The detected fluorescence was converted to picamoles product formed through the slope of a calibration curve of Abz‐Gly. […]
An alternative fluorogenic peptide, Abz‐FRHDSG‐(NT) (BIOPEP™ South Africa) was assayed, with 100 μL enzyme and 100 μL substrate (at a final enzyme concentration within 10% hydrolysis of total substrate; see Table 3) as above, in 96‐well plates. The samples were read at the 5 min time point on a Cary Eclipse spectrofluorimeter (Varian Inc.) at λex = 320 nm and λem = 420 nm. Kinetic constants, inner filter effect and standard curves were calculated as above.

Test [9] concerns ACE. The following applies: full‐length Aβ(1–42); cited from earlier work. An excerpt: This type of cleavage has been observed in previous studies with other amyloid peptides 23, 24 and was also observed in the crystal structures of the N‐domain in complex with all the Aβ fragments tested. Based on the MS analysis of th ...
Test [10] has as its target full-length domain knockout variant of human sACE with only the C-domain active (C-sACE) (human) (UniProt P12821).
Test [11] addresses full-length domain knockout variant of human sACE with only the N-domain active (N-sACE) (human) (UniProt P12821).
The target in test [12] is human wild-type somatic ACE (sACE) (human) (UniProt P12821).
human wild-type somatic ACE (sACE) (human), sequence (P12821 30-1306): as the sequence (P12821 30-1306) above
The target in test [13] is soluble form of the N-domain of human sACE (Ndom) (human) (UniProt P12821).
soluble form of the N-domain of human sACE (Ndom) (human), sequence (P12821 30-658): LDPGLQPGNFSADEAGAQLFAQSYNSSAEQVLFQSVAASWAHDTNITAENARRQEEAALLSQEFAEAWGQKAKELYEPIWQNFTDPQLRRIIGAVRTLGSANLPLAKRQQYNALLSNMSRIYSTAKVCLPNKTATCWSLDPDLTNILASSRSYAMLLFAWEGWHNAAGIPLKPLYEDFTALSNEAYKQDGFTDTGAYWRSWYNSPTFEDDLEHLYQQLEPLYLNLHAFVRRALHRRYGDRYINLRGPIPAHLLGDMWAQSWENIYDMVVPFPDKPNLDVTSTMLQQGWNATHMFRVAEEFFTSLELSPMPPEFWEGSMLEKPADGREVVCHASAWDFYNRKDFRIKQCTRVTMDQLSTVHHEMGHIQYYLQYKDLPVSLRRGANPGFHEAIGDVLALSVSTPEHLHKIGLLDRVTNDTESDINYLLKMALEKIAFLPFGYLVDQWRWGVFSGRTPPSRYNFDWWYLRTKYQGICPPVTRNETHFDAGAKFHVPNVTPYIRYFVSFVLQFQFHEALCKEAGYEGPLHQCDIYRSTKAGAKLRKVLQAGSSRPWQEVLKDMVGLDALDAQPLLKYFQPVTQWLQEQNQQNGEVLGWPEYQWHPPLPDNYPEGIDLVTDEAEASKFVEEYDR
In test [14] the target is full-length domain knockout variant of human sACE with only the C-domain active (C-sACE) (human) (UniProt P12821). This is another data set of the same source.
full-length domain knockout variant of human sACE with only the C-domain active (C-sACE) (human), sequence (P12821 other isoform, or with tags, fused parts or gaps, change not shown): as the sequence (P12821 30-1306) above, with H361K, H365K counted along it
The target of test [15] is full-length domain knockout variant of human sACE with only the N-domain active (N-sACE) (human) (UniProt P12821). This is another data set of the same source.
full-length domain knockout variant of human sACE with only the N-domain active (N-sACE) (human), sequence (P12821 other isoform, or with tags, fused parts or gaps, change not shown): as the sequence (P12821 30-1306) above, with H959K, H963K counted along it
Test [16] deals with full-length domain knockout variant of human sACE with only the C-domain active (C-sACE) (human) (UniProt P12821). The source holds these as a separate data set.
The target of test [17] is full-length domain knockout variant of human sACE with only the N-domain active (N-sACE) (human) (UniProt P12821). This is another data set of the same source.
Setting [18] is: mean ± fractional error of the ratio.

Values joined by “and” are separate entries in the source; they are usually repeats but may differ in a detail not shown here. Equal entries are not always repeated. Where no end group is shown, it is not given here. [ ]: non-standard residue; d: D form. The star is where a group is joined. Tyr(3-NO2) = N[C@@H](Cc1ccc(O)c([N+](=O)[O-])c1)C(=O)O; EDDnp = O=[N+]([O-])c1ccc(NCCN*)c([N+](=O)[O-])c1; 2Abz = Nc1ccccc1C(=O)O; Cbz = O=C(OCc1ccccc1)*

T2 sequence (P12821 30-1306 H988K/H992K): as the sequence (P12821 30-1306) above, with H959K, H963K counted along it
T1 sequence (P12821 30-658): as the sequence (P12821 30-658) above
T4 sequence (P12821 30-1306 H390K/H394K): as the sequence (P12821 30-1306) above, with H361K, H365K counted along it

As for “angiotensin I (DRVYIHPFHL; Angiotensin-1; UniProt P01019 25-34, looked up) [physiological ACE substrate]”, the interdomain cooperativity result in test [1] is “showed a similar result for angiotensin I and angiotensin‐(1‐7) but not angiotensin‐(1‐9)”.

As to “Abz‐FRHDSG(Q)‐EDDnp [Aβ(4–10)Q, fluorogenic Aβ(4–10) peptide, Abz donor, EDDnp quencher attached to additional Gln]”, the K m in test [2] (mean ± SEM) amounted to 22.20 ± 3.23 µM; in test [3] (mean ± SEM) it was 42.43 ± 3.92 µM; in [4] (mean ± SEM), 22.90 ± 3.45 µM; in [5] (mean ± SEM), 11.50 ± 3.03 µM. For the same molecule, the V max in test [2] (mean ± SEM) came out at 0.29 ± 0.02; in [3] (mean ± SEM), 3.23 ± 0.20; in test [4] (mean ± SEM), 0.09 ± 0.01; in test [5] (mean ± SEM), 0.12 ± 0.01. In addition, the k cat in [2] (mean ± SEM) worked out at 0.48 ± 0.04 s⁻¹; in test [3] (mean ± SEM), 0.36 ± 0.02 s⁻¹; in test [4] (mean ± SEM), 0.06 ± 0.01 s⁻¹; in test [5] (mean ± SEM) it was 0.08 ± 0.01 s⁻¹. Moreover, the “k cat/K m” value was 0.22 M^−1·s^−1 × 10^5 and 0.22 ± 0.04 M^−1·s^−1 × 10^5 in test [2] (setting [18]); 0.09 M^−1·s^−1 × 10^5 and 0.09 ± 0.01 M^−1·s^−1 × 10^5 in [3] (setting [18]); 0.03 ± 0.01 M^−1·s^−1 × 10^5 in test [4] (setting [18]); 0.08 ± 0.02 M^−1·s^−1 × 10^5 in test [5] (setting [18]). Also, the “hydrolysis by CC‐sACE” value in [6] is recorded as “almost no hydrolysis”. The “cleavage site (bond)” value in test [7] is reported as “Asp7‐Ser8”. For the same molecule, the interdomain cooperativity entry in test [8] was “This is also true for the Aβ(4–10)Q substrate, although to a much lesser extent”.

Turning to Aβ(1–42): full‐length Aβ(1–42), the cleavage sites result in test [9] is listed as “multiple cleavage sites”.

As for “angiotensin‐(1‐7) (DRVYIHP; Angiotensin 1-7; UniProt P01019 25-31, looked up, fragment) [physiological substrate]”, in test [1], the interdomain cooperativity result was “showed a similar result for angiotensin I and angiotensin‐(1‐7) but not angiotensin‐(1‐9)”.

As to (Abz)‐LFK(Dnp)‐OH, the “effect of the presence of the N‐domain on hydrolysis” value in test [1] is “regulatory effects”.

As to Cbz-Phe-His-Leu [ACE substrate], in [1], the “effect of the presence of the N‐domain on hydrolysis” value was “regulatory effects”.

For Aβ(1–16) (H-…-OH) (peptide), the Km of hydrolysis of Aβ(1–16) (HPLC assay, 15 min, 37 °C, 50 mM Hepes pH 7.5, 100 mM NaCl, 10 μM ZnSO4) in [10] worked out at 42.4 μM; in test [11], 34.2 μM; in [12], 35.2 μM; in test [13] it was 21.4 μM.

On to “bradykinin (RPPGFSPFR; Bradykinin; UniProt P01042 381-389, looked up) [vasodilatory peptide, physiological substrate]”, for which the “degree of cooperativity between domains” value in test [1] is listed as “considerably less than many synthetic peptides”.

On to “angiotensin‐(1‐9) (DRVYIHPFH; Angiotensin 1-9; UniProt P01019 25-33, looked up, fragment) [physiological substrate]”, for which, in test [1], the “degree of cooperativity between domains” value is reported as “considerably less than many synthetic peptides”; the interdomain cooperativity result was “showed a similar result for angiotensin I and angiotensin‐(1‐7) but not angiotensin‐(1‐9)”.

With [2Abz]FRHDSG[Tyr(3-NO2)] [Aβ(4–10)Y (Abz-FRHDSG-(NT))], the Km of hydrolysis of Aβ(4–10)Y (fluorescence assay, read at 5 min) in [14] worked out at 38.1 µM; in [15], 8.56 µM.

For [2Abz]FRHDSGQ-EDDnp [Aβ(4–10)Q (Abz-FRHDSG(Q)-EDDnp)], the Km of hydrolysis of Aβ(4–10)Q (fluorescence assay, 45 min, 37 °C, 50 mM Hepes pH 7.5, 100 mM NaCl, 10 μM ZnSO4) amounted to 11.5 μM in test [16] and 42.4 μM in [17].

The values are drawn from article PMC4950319, “Kinetic and structural characterization of amyloid‐β peptide hydrolysis by human angiotensin‐1‐converting enzyme” (The Febs Journal, 2016).
